Laboratory results: ChEMBL document CHEMBL2417456, “Hit identification and optimization in virtual screening: practical recommendations based on a critical literature analysis” (J Med Chem, 2013)

What was measured:
[1] = Inhibition of HIV1 His6-tagged integrase-FLAG-tagged LEDGF/p75 (unknown origin) interaction after 1 hr by AlphaScreen assay
[2] = system: Human immunodeficiency virus 1; assay: Antiviral activity against HIV1 infected in human MT2 cells assessed as protection from viral replication; assay type: functional, organism-based; details: Human immunodeficiency virus 1, MT2

Row | EC50 [2] | SMILES | IC50 [1]
1 |  | O=C(O)/C(O)=C/C(=O)c1c[nH]c2cccc(O)c12 | 35 µM
2 | > 100 µM | COc1ccc(Cc2nnc(Nc3ccc(C)cc3)o2)cc1OC | 
3 |  | O=C(O)/C(O)=C/C(=O)c1cn(Cc2ccc(F)cc2)c2ccccc12 | 100 µM
